# Measured values reported in patent US6506607B1, “Methods and compositions for the identification and assessment of prostate cancer therapies and the diagnosis of prostate cancer” (Millennium Pharmaceuticals, Inc., priority 1997, dated 2003).
# Test system: LNCaP cells
# Assay: Gene expression in bicalutamide-treated vs untreated LNCaP cells (subtraction library, Gene Expression Micro-Array)
# Format: cell-based
# Conditions: 25 hours
structure (smiles),measurement,setting,value
"CC(O)(CS(=O)(=O)c1ccc(F)cc1)C(=O)Nc1ccc(C#N)c(C(F)(F)F)c1 (centres unmarked) [bicalutamide, Bicalutamide]",FOLD INCREASE IN mRNA: Cyclin-dependent kinase inhibitor 1 {268652},"SEQ ID NO 41, 100 nM bicalutamide",4.5 fold
same,FOLD INCREASE IN mRNA: Activating transcription factor 3 (ATF3) {428248},"SEQ ID NO 42, 100 nM bicalutamide",11.5 fold
same,FOLD INCREASE IN mRNA: Defender against cell death 1 {488974},"SEQ ID NO 43, 100 nM bicalutamide",2.9 fold
same,FOLD INCREASE IN mRNA: CLCN3 {346749},"SEQ ID NO 46, 100 nM bicalutamide",2.4 fold
same,FOLD INCREASE IN mRNA: Phosphotyrosine independent ligand p62 for the Lck SH2 domain {510278},"SEQ ID NO 47, 100 nM bicalutamide",5.8 fold
same,FOLD INCREASE IN mRNA: Seryl-tRNA synthetase {510431},"SEQ ID NO 48, 100 nM bicalutamide",4.3 fold
same,FOLD INCREASE IN mRNA: D53 (hD53) {510461},"SEQ ID NO 49, 100 nM bicalutamide",3.8 fold
same,FOLD INCREASE IN mRNA: Unknown human protein {512334},"SEQ ID NO 50, 100 nM bicalutamide",3.5 fold
same,FOLD INCREASE IN mRNA: Thioredoxin reductase {510377},"SEQ ID NO 51, 100 nM bicalutamide",2.6 fold
same,FOLD INCREASE IN mRNA: ORF and HepG2 (identical sequence) {510258},"SEQ ID NO 53, 100 nM bicalutamide",5.3 fold
same,FOLD INCREASE IN mRNA: 4F2 cell-surface antigen heavy chain {510504},"SEQ ID NO 54, 100 nM bicalutamide",8.1 fold
same,FOLD INCREASE IN mRNA: Asparagine synthetase {510206},"SEQ ID NO 55, 100 nM bicalutamide",2.8 fold
same,FOLD INCREASE IN mRNA: pM5 {509550},"SEQ ID NO 56, 100 nM bicalutamide",2.3 fold
same,FOLD INCREASE IN mRNA: Archain {488510},"SEQ ID NO 57, 100 nM bicalutamide",2.3 fold
same,FOLD INCREASE IN mRNA: Gravin {488106},"SEQ ID NO 58, 100 nM bicalutamide",2.8 fold
same,FOLD INCREASE IN mRNA: Signal recognition particle receptor alpha subunit {358710},"SEQ ID NO 60, 100 nM bicalutamide",2.6 fold
same,FOLD INCREASE IN mRNA: Phosphoenolpyruvate carboxykinase {363272},"SEQ ID NO 61, 100 nM bicalutamide",3.4 fold
same,FOLD INCREASE IN mRNA: Protein translation factor SUI1 homolog {365542},"SEQ ID NO 62, 100 nM bicalutamide",2.7 fold
same,FOLD INCREASE IN mRNA: NADPH-flavin reductase {365775},"SEQ ID NO 63, 100 nM bicalutamide",3.7 fold
same,FOLD INCREASE IN mRNA: Peptidyl-prolyl CIS-trans isomerase B precursor {376399},"SEQ ID NO 64, 100 nM bicalutamide",2.5 fold
same,FOLD INCREASE IN mRNA: Aspartate aminotransferase {417270},"SEQ ID NO 65, 100 nM bicalutamide",3.1 fold
same,FOLD INCREASE IN mRNA: OS-9 precursor {417136},"SEQ ID NO 66, 100 nM bicalutamide",2.7 fold
same,FOLD INCREASE IN mRNA: KIAA0025 and PIGHEP3 homologous region {418227},"SEQ ID NO 67, 100 nM bicalutamide",5.3 fold
same,FOLD INCREASE IN mRNA: Glucosamine-fructose-6-phosphate aminotransferase {469633},"SEQ ID NO 68, 100 nM bicalutamide",3.2 fold
same,FOLD INCREASE IN mRNA: ADP-ribosylation factor 1 {471384},"SEQ ID NO 69, 100 nM bicalutamide",3.1 fold
same,FOLD INCREASE IN mRNA: Glycyl-tRNA synthetase {471164},"SEQ ID NO 70, 100 nM bicalutamide",3.6 fold
same,FOLD INCREASE IN mRNA: Prion protein (PrP) {470074},"SEQ ID NO 71, 100 nM bicalutamide",3.1 fold
same,FOLD INCREASE IN mRNA: Mitochondrial serine hydroxymethyltransferase {344080},"SEQ ID NO 72, 100 nM bicalutamide",2.4 fold
same,FOLD INCREASE IN mRNA: Alanyl-TRNA synthetase {343998},"SEQ ID NO 73, 100 nM bicalutamide",3.8 fold
same,FOLD INCREASE IN mRNA: Translocon-associated protein {324179},"SEQ ID NO 76, 100 nM bicalutamide",2.5 fold
same,FOLD INCREASE IN mRNA: Translation initiation factor 5 (elF5) {299843},"SEQ ID NO 78, 100 nM bicalutamide",2.3 fold
same,FOLD INCREASE IN mRNA: RESTIN {291620},"SEQ ID NO 79, 100 nM bicalutamide",2.3 fold
same,FOLD INCREASE IN mRNA: Transcription elongation factor S-II {257458},"SEQ ID NO 80, 100 nM bicalutamide",2.8 fold
same,FOLD INCREASE IN mRNA: Human clone 137308 {252491},"SEQ ID NO 81, 100 nM bicalutamide",2.6 fold
same,FOLD INCREASE IN mRNA: Glutamate-cysteine ligase regulatory subunit {245939},"SEQ ID NO 82, 100 nM bicalutamide",4.1 fold
same,FOLD INCREASE IN mRNA: Fatty aldehyde dehydrogenase {208950},"SEQ ID NO 83, 100 nM bicalutamide",3.1 fold
same,FOLD INCREASE IN mRNA: MHC class I HLA-Bw58 gene {203448},"SEQ ID NO 84, 100 nM bicalutamide",2.3 fold
same,FOLD INCREASE IN mRNA: Mitochondrial NDA (P)+ dependent malic enzyme {109375},"SEQ ID NO 85, 100 nM bicalutamide",2.5 fold
same,FOLD INCREASE IN mRNA: GADD 153 = Growth arrest and DNA-damage inductor gene {362009},"SEQ ID NO 136, 100 nM bicalutamide",11.1 fold
same,FOLD INCREASE IN mRNA: KIAA0025 gene {30476},"SEQ ID NO 137, 100 nM bicalutamide",6.7 fold
same,FOLD INCREASE IN mRNA: Phosphotyrosine independent ligand p62 for the Lck SH2 domain {471392},"SEQ ID NO 138, 100 nM bicalutamide",6.4 fold
same,FOLD INCREASE IN mRNA: 150 kDa oxygen-regulated protein ORP150 {486858},"SEQ ID NO 139, 100 nM bicalutamide",5.9 fold
same,FOLD INCREASE IN mRNA: 78 KD Glucose regulated protein precursor {366350},"SEQ ID NO 140, 100 nM bicalutamide",4 fold
same,FOLD INCREASE IN mRNA: Smad 1 {345928},"SEQ ID NO 141, 100 nM bicalutamide",3.9 fold
same,FOLD INCREASE IN mRNA: EST28g11 WATM1 {486703},"SEQ ID NO 142, 100 nM bicalutamide",3.8 fold
same,FOLD INCREASE IN mRNA: ESTs {322080},"SEQ ID NO 143, 100 nM bicalutamide",3.7 fold
same,FOLD INCREASE IN mRNA: Seryl-tRNA sythetase {129892},"SEQ ID NO 144, 100 nM bicalutamide",3.6 fold
